The record followed here is patent US8163718B2, “Nucleoside analogues containing phosphonate or phosphonamide groups” (Gilead Sciences, Inc., priority 2008, dated 2012).

Broadly, the GI50 is the concentration giving 50% growth inhibition.

Test in all cases: Cytostatic cell culture assay (GI50), SRB
Common to all, as to type: cell-based

Experiment [1] relates to Du-145. Particulars: Homo sapiens, DU-145, 120 h; 5 days incubation. The text has this:
(§1) The assay is based on quantification of cell counts by a colorimetric detection of the cell associated proteins. The assay relies on the ability of sulforhodamine B (SRB) to bind to protein components of cells that have been fixed to tissue-culture plates by trichloroacetic acid (TCA). SRB is a bright-pink aminoxanthene dye with two sulfonic groups that bind to basic amino-acid residues under mild acidic conditions, and dissociate under basic conditions. As the binding of SRB is stoichiometric, the amount of dye extracted from stained cells is directly proportional to the cell mass.
(§2) Cell lines: All cell lines were obtained from ATCC (Manassas, Va.). Cultivation media containing Glutamax, and trypsin were purchased from Invitrogen (Carlsbad, Calif.). Doxorubicin, Clofarabine, TCA and SRB were from Sigma-Aldrich (St. Louis, Mo.). Gemcitabine was obtained from Moravek Biochemicals (Brea, Calif.)
(§3) • 1. Trypsinize the sub-confluent cells, count them, and adjust the cell concentrations according to the cell counts listed in Table 1. • 2. Distribute the cells into the 96-well plates in 150 μL of media. Incubate the plates overnight in humidified CO2 incubator at 37° C. • 3. Fix one plate of each cell line with TCA. Discard the cultivation media from the plates by flicking them gently and add 100 ul cold 10% (vol/vol) TCA to each well. Incubate the plates at 4 degree refrigerator for 1 hour. Discard TCA from the plates by flicking them gently. Rinse plates four times in a washing basin containing tap water. Store the plates at room temperature. These plates represent cell counts on day zero. • 4. Prepare a set of medium solutions containing various concentrations of tested compounds by making 5-fold serial dilutions in 96-well plate. Add 50 μL of the diluted compounds per well. Include controls with untreated cells and cells treated with doxorubicin, clofarabine and gemcitabine. • 5. Incubate the plates for 5 days at 37° C. • 6. Fix the plates with TCA. Discard the cultivation media from the plates by flicking them gently and add 100 ul cold 10% (vol/vol) TCA to each well. Incubate the plates at 4 degree refrigerator for 1 hour. Discard TCA from the plates by flicking them gently. Rinse plates four times in a washing basin containing tap water. • 7. Remove excess water by tapping the plates face down, gently on a paper towel. Allow the plates to air-dry at room temperature. • 8. Add 100 ul of 0.057% SRB solution in 1% (vol/vol) acetic acid to each well of the plates fixed with TCA on day zero and five. Leave at room temperature for 30 minutes. • 9. Flick the plates gently to discard SRB. Rinse the plates four times with 1% (vol/vol) Acetic Acid. • 10. Store the plates at 37 degree incubator to facilitate faster drying. • 11. Once the plates are completely dry, add 200 ul of 10 mM Tris base solution (pH 10.5) to each well. Leave at room temperature for 30 minutes for SRB to solubilize. • 12. Measure the OD at 500 nm in a microplate reader • 13. Calculate the percentage of cell-growth inhibition using the next formula: % of control cell growth=100×(ODsample−mean ODday0)/(ODneg control−mean ODday0)
(§4) For GI50 determination, plot a dose-response curve between the compound concentration and percent of growth inhibition. GI50 values can be derived by fitting dose-response curves using sigmoidal dose response equation.

For experiment [2], the system named is A549. Particulars: Homo sapiens, A549, 120 h; 5 days incubation.
Description: as §1, §2, §3, §4

The subject of experiment [3] is HCT-15. The note with it: Homo sapiens, HCT-15, 120 h; 5 days incubation.
Description: as §1, §2, §3, §4

Experiment [4] concerns HCT-116. Particulars: Homo sapiens, HCT-116, 120 h; 5 days incubation.
Description: as §1, §2, §3, §4

In experiment [5] the test system is NCI-H23. The note with it: Homo sapiens, NCI-H23, 120 h; 5 days incubation.
Description: as §1, §2, §3, §4

Experiment [6] deals with PC3. The note with it: Homo sapiens, PC-3, 120 h; 5 days incubation.
Description: as §1, §2, §3, §4

Experiment [7] concerns Hs-578. Particulars: Hs578, 120 h; 5 days incubation.
Description: as §1, §2, §3, §4

In experiment [8] the test system is BT-549. Particulars: Homo sapiens, BT-549, 120 h; 5 days incubation.
Description: as §1, §2, §3, §4

The structures appear in SMILES notation.

In the case of `CCOC(=O)[C@H](Cc1ccccc1)NP(=O)(COCCn1cnc2c(OC)nc(N)nc21)N[C@@H](Cc1ccccc1)C(=O)OCC` [Example 30], the GI50 stood at 0.003 µM in experiment [1]; 0.036 µM in experiment [2]; 1.9 µM in experiment [3]; 0.027 µM in experiment [4]; 0.01 µM in experiment [5]; 0.103 µM in experiment [6]. The values for the GI50 in experiment [7] and in experiment [8] were 0.017 µM and 0.023 µM, respectively.

Take `CCCOc1nc(N)nc2c1ncn2CCOCP(=O)(O)O` [Example 1, [2-(2-Amino-6-propoxy-purin-9-yl)-ethoxymethyl]-phosphonic acid]: the 50% growth inhibitory concentration (GI50) turned out to be 0.076 µM in experiment [1]; 1.24 µM in experiment [2]; 0.886 µM in experiment [3]; 1.1 µM in experiment [4]; 0.287 µM in experiment [5]; 1.1 µM in experiment [6]. Besides, the GI50 was 3.81 µM in experiment [7] and 0.9 µM in experiment [8].

Take `COCCOc1nc(N)nc2c1ncn2CCOCP(=O)(O)O` [Example 11, {2-[2-Amino-6-(2-methoxy-ethoxy)-purin-9-yl]-ethoxymethyl}-phosphonic acid]: the GI50 was 0.805 µM in experiment [1]; 11 µM in experiment [2]; more than 10 µM in experiment [3]; 11 µM in experiment [4]; 1.98 µM in experiment [5]; 3.76 µM in experiment [6]. Besides, the 50% growth inhibitory concentration (GI50) in experiment [7] is 5.1 µM; in experiment [8], more than 10 µM.

Regarding `CCCOc1nc(N)nc2c1ncn2CCOCP(=O)(N[C@@H](Cc1ccccc1)C(=O)OCC(C)C)N[C@@H](Cc1ccccc1)C(=O)OCC(C)C` [Example 19], the GI50 in experiment [1] amounted to 0.001 µM; in experiment [2], 0.004 µM; in experiment [3], 0.467 µM; in experiment [4], 0.005 µM; in experiment [5] it was 0.001 µM; in experiment [6] it was 0.01 µM. The GI50 came to 0.005 µM in experiment [7] and 0.053 µM in experiment [8].

With `CCCCOC(=O)[C@H](C)NP(=O)(COCCn1cnc2c(OCCOC)nc(N)nc21)N[C@@H](C)C(=O)OCCCC` [Example 49], the GI50 was found to be 0.001 µM in experiment [1]; 0.368 µM in experiment [2]; 5.1 µM in experiment [3]; 0.109 µM in experiment [4]; 0.002 µM in experiment [5]; 0.003 µM in experiment [6]. For the same compound, the GI50 in experiment [7] was 0.025 µM; in experiment [8], 0.05 µM.

As for `CCOC(=O)[C@H](C)NP(=O)(COCCn1cnc2c(OC3CCC3)nc(N)nc21)N[C@@H](C)C(=O)OCC` [Example 45], the GI50 in experiment [1] worked out at 0.008 µM; in experiment [2], 0.451 µM; in experiment [3] it was 8.3 µM; in experiment [4], 0.372 µM; in experiment [5] it was 0.022 µM; in experiment [6], 0.113 µM. In addition, the GI50 in experiment [7] was found to be 0.174 µM; in experiment [8] it was 0.269 µM.

`CCCCOC(=O)[C@H](C)NP(=O)(COCCn1cnc2c(OC3CCCC3)nc(N)nc21)N[C@@H](C)C(=O)OCCCC` [Example 47]: the GI50 is 0.001 µM in experiment [1]; 0.103 µM in experiment [2]; 1.81 µM in experiment [3]; 0.055 µM in experiment [4]; 0.004 µM in experiment [5]; 0.008 µM in experiment [6]. In addition, the figures for the GI50 in experiment [7] and in experiment [8] were 0.05 µM and 0.326 µM, respectively.

On to `CCCCCCOC(=O)[C@@H]1CCCN1P(=O)(COCCn1cnc2c(OCCC)nc(N)nc21)N1CCC[C@H]1C(=O)OCCCCCC` [Example 26], for which the GI50 in experiment [1] is 0.002 µM; in experiment [2], 1.05 µM; in experiment [3], 1.95 µM; in experiment [4], 0.119 µM; in experiment [5] it was 0.009 µM; in experiment [6], 0.081 µM. Besides, the GI50 in experiment [7] is 0.097 µM; in experiment [8], 0.067 µM.

With `Nc1nc(OC2CC2)c2ncn(CCOCP(=O)(O)O)c2n1` [Example 8, [2-(2-Amino-6-cyclopropoxy-purin-9-yl)-ethoxymethyl]-phosphonic acid], the GI50 in experiment [1] turned out to be 0.536 µM; in experiment [2] it was 2.82 µM; in experiment [3], 4.14 µM; in experiment [4], 5.4 µM; in experiment [5] it was 0.675 µM; in experiment [6], 2.83 µM. Also, the GI50 in experiment [7] came out at 3.34 µM; in experiment [8] it was 2.71 µM.

For the compound `CCOc1nc(N)nc2c1ncn2CCOCP(=O)(O)O` [Example 5, [2-(2-Amino-6-ethoxy-purin-9-yl)-ethoxymethyl]-phosphonic acid], the GI50 came out at 0.223 µM in experiment [1]; 2.84 µM in experiment [2]; 2.44 µM in experiment [3]; 3.59 µM in experiment [4]; 0.639 µM in experiment [5]; 2.48 µM in experiment [6]. Besides, the GI50 in experiment [7] was found to be 2.59 µM; in experiment [8] it was 2 µM.

As for `CCCCOC(=O)[C@H](Cc1ccccc1)NP(=O)(COCCn1cnc2c(OC)nc(N)nc21)N[C@@H](Cc1ccccc1)C(=O)OCCCC` [Example 31], the GI50 in experiment [1] worked out at 0.001 µM; in experiment [2], 0.006 µM; in experiment [3], 0.604 µM; in experiment [4], 0.006 µM; in experiment [5] it was 0.002 µM; in experiment [6], 0.016 µM. Further, the 50% growth inhibitory concentration (GI50) in experiment [7] was 0.005 µM; in experiment [8], 0.02 µM.

Regarding `Nc1nc(OC2CCC2)c2ncn(CCOCP(=O)(O)O)c2n1` [Example 9, [2-(2-Amino-6-cyclobutoxy-purin-9-yl)-ethoxymethyl]-phosphonic acid], the GI50 in experiment [1] was found to be 0.077 µM; in experiment [2], 1.83 µM; in experiment [3], 1.22 µM; in experiment [4], 1.72 µM; in experiment [5], 0.359 µM; in experiment [6], 0.955 µM. Moreover, the GI50 in experiment [7] and in experiment [8] was 1.55 µM in each case.

As to `CCOC(=O)[C@H](C)NP(=O)(COCCn1cnc2c(OCCOC)nc(N)nc21)N[C@@H](C)C(=O)OCC` [Example 48], the GI50 is 0.108 µM in experiment [1]; 4.09 µM in experiment [2]; more than 10 µM in experiment [3]; 2.52 µM in experiment [4]; 0.061 µM in experiment [5]; 0.372 µM in experiment [6]. Besides, the GI50 in experiment [7] worked out at 0.976 µM; in experiment [8] it was 1.71 µM.

As for `CCOC(=O)[C@@H]1CCCN1P(=O)(COCCn1cnc2c(OC3CCCCC3)nc(N)nc21)N1CCC[C@H]1C(=O)OCC` [Example 40], the GI50 in experiment [1] was 0.074 µM; in experiment [2] it was 8.8 µM; in experiment [3] it was more than 10 µM; in experiment [4], 2.44 µM; in experiment [5] it was 0.252 µM; in experiment [6], 0.109 µM. In addition, the GI50 in experiment [7] is 0.276 µM; in experiment [8], 1.78 µM.

Take `Nc1nc(NC2CC2)c2ncn(CCOCP(=O)(O)O)c2n1` [Example 12, [2-(2-Amino-6-cyclopropylamino-purin-9-yl)-ethoxymethyl]-phosphonic acid]: the GI50 in experiment [1] is 1.23 µM; in experiment [2], 35 µM; in experiment [3] it was 38 µM; in experiment [4], 38 µM; in experiment [5], 2.19 µM; in experiment [6], 6.1 µM. Further, the figures for the GI50 in experiment [7] and in experiment [8] were 18 µM and 70 µM, respectively.

Take `COc1nc(N)nc2c1ncn2CCOCP(=O)(N[C@@H](C)C(=O)OC(C)C)N[C@@H](C)C(=O)OC(C)C` [Example 29]: the 50% growth inhibitory concentration (GI50) is 0.029 µM in experiment [1]; 0.387 µM in experiment [2]; more than 10 µM in experiment [3]; 0.988 µM in experiment [4]; 0.032 µM in experiment [5]; 0.325 µM in experiment [6]. The values for the GI50 in experiment [7] and in experiment [8] were 0.378 µM and 1.11 µM, respectively.
